{"source": "patent US20100029657A1", "about": "“Bridged, Bicyclic Heterocyclic or Spiro Bicyclic Heterocyclic Derivatives of Pyrazolo[1, 5-A]Pyrimidines, Methods for Preparation and Uses Thereof” (Wyeth, priority 2008, published 2010)", "data": [{"biological_target": "T1, Flag/GST-tagged recombinant human B-Raf (Homo sapiens, UniProt P15056)", "T1 construct": "Flag; GST; made in house; host or cells: Sf9 insect cells (B-Raf); E. coli (MEK1-GST)", "T1 sequence (P15056 whole entry)": "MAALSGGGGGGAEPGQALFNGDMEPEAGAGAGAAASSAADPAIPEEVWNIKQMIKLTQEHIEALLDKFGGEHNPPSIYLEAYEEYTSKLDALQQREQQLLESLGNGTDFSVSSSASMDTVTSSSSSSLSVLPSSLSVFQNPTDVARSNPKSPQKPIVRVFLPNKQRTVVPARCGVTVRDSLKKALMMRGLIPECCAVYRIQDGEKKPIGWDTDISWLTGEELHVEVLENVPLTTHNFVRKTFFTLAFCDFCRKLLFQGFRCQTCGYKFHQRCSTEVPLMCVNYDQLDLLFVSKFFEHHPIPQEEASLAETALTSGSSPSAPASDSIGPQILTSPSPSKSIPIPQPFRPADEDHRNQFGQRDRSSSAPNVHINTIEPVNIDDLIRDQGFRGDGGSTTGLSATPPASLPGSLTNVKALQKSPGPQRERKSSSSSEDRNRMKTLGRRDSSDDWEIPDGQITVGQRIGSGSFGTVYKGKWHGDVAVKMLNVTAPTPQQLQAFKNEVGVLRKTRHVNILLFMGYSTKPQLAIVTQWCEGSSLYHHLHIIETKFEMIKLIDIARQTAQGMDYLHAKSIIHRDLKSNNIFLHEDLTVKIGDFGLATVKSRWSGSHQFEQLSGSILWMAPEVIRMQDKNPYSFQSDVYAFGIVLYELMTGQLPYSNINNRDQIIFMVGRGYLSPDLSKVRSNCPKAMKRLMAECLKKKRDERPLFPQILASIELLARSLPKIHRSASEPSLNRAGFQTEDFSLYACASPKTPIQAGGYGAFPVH", "assay": "B-Raf kinase assay (phosphorylation of GST-MEK1, phospho-MEK1 antibody/Europium detection)", "assay_type": "biochemical", "settings": "B-Raf IC50 Data for compounds of Formula A; read-out: Mean IC50", "protocol": "(§1) B-Raf1 Kinase Assay Procedure: B-Raf-1 is used to phosphorylate GST-MEK1.\n(§2) • 1. Assay Dilution Buffer (ADB): 20 mM MOPS, pH 7.2, 25 mM β-glycerol phosphate, 5 mM EGTA, 1 mM sodium orthovanadate, 1 mM dithiothreitol, 0.01% Triton X-100. • 2. Magnesium/ATP Cocktail: ADB solution (minus Triton X-100) plus 200 μM cold ATP and 40 mM magnesium chloride. • 4. Active Kinase: Active B-Raf: Used at 0.2 nM per assay point. • 5. […] TBST—Tris (50 mM, pH 7.5), NaCl (150 mM), Tween-20 (0.05%) • 7. Anti-GST Ab (GE) • 8. Anti pMEK Ab (Upstate) • 9. Anti-rabbit Ab/Europium conjugate (Wallac).\n(§3) B-Raf Assay Procedure: • 1. Added 25 μL of ADB containing B-Raf and Mek per assay (i.e. per well of a 96 well plate) • 2. Added 25 μL of 0.2 mM ATP and 40 mM magnesium chloride in Magnesuium/ATP Cocktail. • 3. Incubated for 45 minutes at RT with occasional shaking. • 4. Transferred this mixture to an anti-GST Ab coated 96 well plate (Nunc Immunosorb plates coated o/n with a-GST. Plate freshly washed 3×with TBS-T before use. • 5. Incubated o/n at […] in cold room. • 6. Washed 3× with TBST, ed Anti-Phospho MEK1 (1:1000, dilution depended upon lot) • 7. Incubated for 60 minutes at RT in a shaking incubator • 8. Washed 3× with TBST, add Anti-rabbit Ab/Europium conjugate (Wallac) (1:500, dilution depended upon lot) • 9. Incubated for 60 minutes at RT on a platform shaker. • 10. Washed plate 3× with TBS-T • 11. Added 100 μL of Wallac Delfia Enhancement Solution and agitated for 10 minutes. • 12. Read plates in Wallac Victor model Plate Reader. • 13.\n(§4) The % inhibition was determined for each compound concentration.", "units": {"IC50": "µM"}, "values": [{"smiles": "CCN1C2CCC1CC(c1ccnc3c(-c4ccc(Cl)c(OC)c4)c(-c4ccncc4)nn13)C2", "note": "(centres unmarked) [Example 17, 3-(4-Chloro-3-methoxyphenyl)-7-(8-ethyl-8-azabicyclo[3.2.1]oct-3-yl)-2-pyridin-4-ylpyrazolo[1,5-a]pyrimidine]", "IC50": 0.044}, {"smiles": "CCN1C2CCC1CC(c1ccnc3c(-c4ccc(Cl)c(O)c4)c(-c4ccncc4)nn13)C2", "note": "(centres unmarked) [Example 18, 2-Chloro-5-[7-(8-ethyl-8-azabicyclo[3.2.1]oct-3-yl)-2-pyridin-4-ylpyrazolo[1,5-a]pyrimidin-3-yl]phenol]", "IC50": 0.0006}, {"smiles": "COc1cccc(-c2c(-c3ccncc3)nn3c(C4CC5CCC(C4)N5)ccnc23)c1", "note": "(centres unmarked) [Example 19, 7-(8-Azabicyclo[3.2.1]oct-3-yl)-3-(3-methoxyphenyl)-2-pyridin-4-ylpyrazolo[1,5-a]pyrimidine]", "IC50": 0.071}, {"smiles": "CCN1C2CCC1CC(c1ccnc3c(-c4ccnc(OC)c4)c(-c4ccncc4)nn13)C2", "note": "(centres unmarked) [Example 20, 7-(8-Ethyl-8-azabicyclo[3.2.1]octan-3-yl)-3-(2-methoxypyridin-4-yl)-2-(pyridin-4-yl)pyrazolo[1,5-a]pyrimidine]", "IC50": 0.835}, {"smiles": "CCN1C2CCC1CC(c1ccnc3c(-c4ccnc(O)c4)c(-c4ccncc4)nn13)C2", "note": "(centres unmarked) [Example 21, 4-(7-(8-Ethyl-8-azabicyclo[3.2.1]octan-3-yl)-2-(pyridin-4-yl)pyrazolo[1,5-a]pyrimidin-3-yl)pyridin-2-ol]", "IC50": "> 1"}, {"smiles": "CCN1C2CCC1CC(c1ccnc3c(-c4ccc(N)cc4)c(-c4ccncc4)nn13)C2", "note": "(centres unmarked) [Example 22, 4-(7-(8-Ethyl-8-azabicyclo[3.2.1]octan-3-yl)-2-(pyridin-4-yl)pyrazolo[1,5-a]pyrimidin-3-yl)aniline]", "IC50": "> 1"}, {"smiles": "CCN1C2CCC1CC(c1ccnc3c(-c4ccc(NC(N)=O)cc4)c(-c4ccncc4)nn13)C2", "note": "(centres unmarked) [Example 23, 1-(4-(7-(8-Ethyl-8-azabicyclo[3.2.1]octan-3-yl)-2-(pyridin-4-yl)pyrazolo[1,5-a]pyrimidin-3-yl)phenyl)urea]", "IC50": "> 1"}, {"smiles": "CN1C2CCC1CN(c1ccc(-c3ccnc4c(-c5cccc(O)c5)c(-c5ccncc5)nn34)cc1)C2", "note": "[Example 25, 3-{7-[4-(8-Methyl-3,8-diaza-bicyclo[3.2.1]oct-3-yl)-phenyl]-2-pyridin-4-yl-pyrazolo[1,5-a]pyrimidin-3-yl}-phenol]", "IC50": 0.001}, {"smiles": "COc1cccc(-c2c(-c3ccncc3)nn3c(-c4ccc(N5C[C@@H]6C[C@H]5CN6)cc4)ccnc23)c1", "note": "[Example 28, 7-[4-((1S,4S)-2,5-Diaza-bicyclo[2.2.1]hept-2-yl)-phenyl]-3-(3-methoxy-phenyl)-2-pyridin-4-yl-pyrazolo[1,5-a]pyrimidine]", "IC50": 0.016}, {"smiles": "Oc1cccc(-c2c(-c3ccncc3)nn3c(-c4ccc(N5C[C@@H]6C[C@H]5CN6)cc4)ccnc23)c1", "note": "[Example 29, 3-{7-[4-((1S,4S)-2,5-Diaza-bicyclo[2.2.1]hept-2-yl)-phenyl]-2-pyridin-4-yl-pyrazolo[1,5-a]pyrimidin-3-yl}-phenol]", "IC50": 0.0005}, {"smiles": "CN1C[C@@H]2C[C@H]1CN2c1ccc(-c2ccnc3c(-c4cccc(O)c4)c(-c4ccncc4)nn23)cc1", "note": "[Example 30, 3-{7-[4-((1S,4S)-5-Methyl-2,5-diaza-bicyclo[2.2.1]hept-2-yl)-phenyl]-2-pyridin-4-yl-pyrazolo[1,5-a]pyrimidin-3-yl}-phenol]", "IC50": "< 0.003"}, {"smiles": "COc1cc(-c2c(-c3ccncc3)nn3c(-c4ccc(N5C[C@@H]6C[C@H]5CN6)cc4)ccnc23)ccc1Cl", "note": "[Example 31, 7-(4-((1S,4S)-2,5-Diaza-bicyclo[2.2.1]heptan-2-yl)phenyl)-3-(4-chloro-3-methoxyphenyl)-2-(pyridin-4-yl)pyrazolo[1,5-a]pyrimidine]", "IC50": 0.0018}, {"smiles": "COc1cc(-c2c(-c3ccncc3)nn3c(-c4ccc(N5C[C@@H]6C[C@H]5CN6)cc4)ccnc23)ccc1F", "note": "[Example 32, 7-(4-((1S,4S)-2,5-Diaza-bicyclo[2.2.1]heptan-2-yl)phenyl)-3-(4-fluoro-3-methoxyphenyl)-2-(pyridin-4-yl)pyrazolo[1,5-a]pyrimidine]", "IC50": 0.0087}, {"smiles": "Oc1cc(-c2c(-c3ccncc3)nn3c(-c4ccc(N5C[C@@H]6C[C@H]5CN6)cc4)ccnc23)ccc1F", "note": "[Example 33, 5-(7-(4-((1S,4S)-2,5-Diazabicyclo[2.2.1]heptan-2-yl)phenyl)-2-(pyridin-4-yl)pyrazolo[1,5-a]pyrimidin-3-yl)-2-fluorophenol]", "IC50": "< 0.0003"}, {"smiles": "CN1C[C@@H]2C[C@H]1CN2c1ccc(-c2ccnc3c(-c4cccc5[nH]ncc45)c(-c4ccncc4)nn23)cn1", "note": "[Example 34, 3-(1H-Indazol-4-yl)-7-(6-((1S,4S)-5-methyl-2,5-diazabicyclo[2.2.1]heptan-2-yl)pyridin-3-yl)-2-(pyridin-4-yl)pyrazolo[1,5-a]pyrimidine]", "IC50": 0.0023}, {"smiles": "CN1C[C@@H]2C[C@H]1CN2c1ccc(-c2ccnc3c(-c4cccc5[nH]ncc45)c(-c4ccncc4)nn23)cc1", "note": "[Example 35, 3-(1H-indazol-4-yl)-7-(4-((1S,4S)-5-methyl-2,5-diazabicyclo[2.2.1]heptan-2-yl)phenyl)-2-(pyridin-4-yl)pyrazolo[1,5-a]pyrimidine]", "IC50": 0.0015}, {"smiles": "COc1cccc(-c2c(-c3ccncc3)nn3c(-c4ccc(N5C[C@@H]6C[C@H]5CN6C)cc4)ccnc23)c1", "note": "[Example 36, 3-(3-Methoxyphenyl)-7-(4-((1S,4S)-5-methyl-2,5-diazabicyclo[2.2.1]heptan-2-yl)phenyl)-2-(pyridin-4-yl)pyrazolo[1,5-a]pyrimidine]", "IC50": 0.0082}, {"smiles": "COc1cc(-c2c(-c3ccncc3)nn3c(-c4ccc(N5C[C@@H]6C[C@H]5CN6C)cc4)ccnc23)ccc1F", "note": "[Example 37, 3-(4-Fluoro-3-methoxyphenyl)-7-(4-((1S,4S)-5-methyl-2,5-diazabicyclo[2.2.1]heptan-2-yl)phenyl)-2-(pyridin-4-yl)pyrazolo[1,5-a]pyrimidine]", "IC50": 0.021}, {"smiles": "CCN1C[C@@H]2C[C@H]1CN2c1ccc(-c2ccnc3c(-c4ccc(F)c(O)c4)c(-c4ccncc4)nn23)cc1", "note": "[Example 38, 5-(7-(4-((1S,4S)-5-Ethyl-2,5-diazabicyclo[2.2.1]heptan-2-yl)phenyl)-2-(pyridin-4-yl)pyrazolo[1,5-a]pyrimidin-3-yl)-2-fluorophenol]", "IC50": 0.0005}, {"smiles": "CC(=O)N1C[C@@H]2C[C@H]1CN2c1ccc(-c2ccnc3c(-c4ccc(F)c(O)c4)c(-c4ccncc4)nn23)cc1", "note": "[Example 39, 1-((1S,4S)-5-(4-(3-(4-Fluoro-3-hydroxyphenyl)-2-(pyridin-4-yl)pyrazolo[1,5-a]pyrimidin-7-yl)phenyl)-2,5-diazabicyclo[2.2.1]heptan-2-yl)ethanone]", "IC50": 0.0005}, {"smiles": "Cc1ccc(-c2c(-c3ccncc3)nn3c(-c4ccc(N5C[C@@H]6C[C@H]5CN6C)nc4)ccnc23)c2cn[nH]c12", "note": "[Example 40, 3-(7-Methyl-1H-indazol-4-yl)-7-(6-((1S,4S)-5-methyl-2,5-diazabicyclo[2.2.1]heptan-2-yl)pyridin-3-yl)-2-(pyridin-4-yl)pyrazolo[1,5-a]pyrimidine]", "IC50": 0.0007}, {"smiles": "CN1C[C@@H]2C[C@H]1CN2c1ccc(-c2ccnc3c(-c4ccc(Cl)c5[nH]ncc45)c(-c4ccncc4)nn23)cn1", "note": "[Example 41, 3-(7-Chloro-1H-indazol-4-yl)-7-(6-((1S,4S)-5-methyl-2,5-diazabicyclo[2.2.1]heptan-2-yl)pyridin-3-yl)-2-(pyridin-4-yl)pyrazolo[1,5-a]pyrimidine]", "IC50": "< 0.0003"}, {"smiles": "CN1C[C@@H]2C[C@H]1CN2c1ccc(-c2ccnc3c(-c4ccc(F)c5[nH]ncc45)c(-c4ccncc4)nn23)cn1", "note": "[Example 42, 3-(7-Fluoro-1H-indazol-4-yl)-7-(6-((1S,4S)-5-methyl-2,5-diazabicyclo[2.2.1]heptan-2-yl)pyridin-3-yl)-2-(pyridin-4-yl)pyrazolo[1,5-a]pyrimidine]", "IC50": 0.0004}, {"smiles": "CN1C[C@@H]2C[C@H]1CN2c1ccc(-c2ccnc3c(-c4cccc(C(N)=O)c4)c(-c4ccncc4)nn23)cn1", "note": "[Example 43, 3-(7-(6-((1S,4S)-5-Methyl-2,5-diazabicyclo[2.2.1]heptan-2-yl)pyridin-3-yl)-2-(pyridin-4-yl)pyrazolo[1,5-a]pyrimidin-3-yl)benzamide]", "IC50": 0.134}]}, {"biological_target": "T1, Flag/GST-tagged recombinant human B-Raf", "assay": "B-Raf kinase assay (phosphorylation of GST-MEK1, phospho-MEK1 antibody/Europium detection)", "assay_type": "biochemical", "settings": "Mean IC50 (uM), B-Raf IC50 Data for compounds of Formula A", "protocol": "as §1, §2, §3, §4", "units": {"IC50": "µM"}, "values": [{"smiles": "COc1cc(-c2c(-c3ccncc3)nn3c(-c4ccc(N5CC6CCC(C5)N6C)cc4)ccnc23)ccc1Cl", "note": "[Example 26, 3-(4-Chloro-3-methoxy-phenyl)-7-[4-(8-methyl-3,8-diaza-bicyclo[3.2.1]oct-3-yl)-phenyl]-2-pyridin-4-yl-pyrazolo[1,5-a]pyrimidine]", "IC50": 0.01}, {"smiles": "CN1C2CCC1CN(c1ccc(-c3ccnc4c(-c5ccc(Cl)c(O)c5)c(-c5ccncc5)nn34)cc1)C2", "note": "[Example 27, 2-Chloro-5-{7-[4-(8-methyl-3,8-diaza-bicyclo[3.2.1]oct-3-yl)-phenyl]-2-pyridin-4-yl-pyrazolo[1,5-a]pyrimidin-3-yl}-phenol]", "IC50": "< 0.0003"}]}]}
